Assay results from article PMC5217682, “Galactomannan Catabolism Conferred by a Polysaccharide Utilization Locus of Bacteroides ovatus” (The Journal of Biological Chemistry, 2016).

Molecular target: T1, BoMan26B (Bacteroides ovatus, UniProt A0ABU3IS29)
T1 construct: gene RO706_12620; residues 1-19 (lipoprotein signal) deleted; His tag kept; expressed in E. coli BL21(DE3); 347 residues, 39,870 Da with tag
T1 sequence (A0ABU3IS29 20-360): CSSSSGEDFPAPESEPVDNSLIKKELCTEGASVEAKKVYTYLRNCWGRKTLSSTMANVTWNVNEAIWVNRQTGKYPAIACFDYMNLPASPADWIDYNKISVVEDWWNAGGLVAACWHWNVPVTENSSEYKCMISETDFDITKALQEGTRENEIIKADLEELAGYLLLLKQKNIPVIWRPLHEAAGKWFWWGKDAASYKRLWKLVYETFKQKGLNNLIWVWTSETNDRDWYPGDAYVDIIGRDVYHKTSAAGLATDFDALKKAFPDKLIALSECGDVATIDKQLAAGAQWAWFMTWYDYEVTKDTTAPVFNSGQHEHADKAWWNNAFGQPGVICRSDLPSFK
Assay: hydrolysis by HPAEC-PAD
Format: biochemical
Conditions: […] substrate, […] potassium phosphate pH […] °C

OC[C@H]1O[C@@H](O[C@H]2[C@H](O)[C@H](O)[C@H](O[C@H]3[C@H](O)[C@H](O)[C@H](O[C@H]4[C@H](O)[C@H](O)[C@H](O[C@H]5[C@H](O)[C@H](O)C(O)O[C@@H]5CO)O[C@@H]4CO)O[C@@H]3CO)O[C@@H]2CO)[C@@H](O)[C@@H](O)[C@@H]1O (stereo partly shown) [M5, mannopentaose]
hydrolysis by HPAEC-PAD: it hydrolyzed all tested manno oligo- and polysaccharides (M3–M6
